Results published in the Kinase Knowledgebase extract (Sharma et al. 2016).
Where “and” joins values, the source holds several entries; their conditions need not be identical. Identical values can stand only once.

target: CDK2 (human) (UniProt P24941); experiment: Enzyme Assay; conditions: not given

IC50 | SMILES
949 nM | CC(C)n1cnc2c(NCc3cccnc3)nc(NCC(O)(C(F)(F)F)C(F)(F)F)nc21
100 nM | CC[C@H](Nc1nc(NCc2cccc(Cl)c2)c2ncn(C(C)C)c2n1)[C@@H](C)O
200 nM | CC[C@H](Nc1nc(NCc2cccnc2)c2ncn(C(C)C)c2n1)C(C)(C)O
368 nM | CCC(Nc1nc(NCc2ccc(C(F)(F)F)nc2)c2ncn(C(C)C)c2n1)C(O)C(F)(F)F (configuration not stated)
120 nM | CC[C@H](Nc1nc(NCc2cccc(F)c2)c2ncn(C(C)C)c2n1)[C@@H](C)O

SMILES | IC50
CC[C@H](Nc1nc(NCc2ccc(C)nc2)c2ncn(C(C)C)c2n1)[C@@H](C)O | 3250 nM
CC[C@H](Nc1nc(NCc2cnc(C)cc2C)c2ncn(C(C)C)c2n1)[C@@H](C)O | 90 nM and 40 nM

target: MAPK14 (human) (UniProt Q16539); experiment: Inhibition of LPS Induced TNF-alpha Production in THP-1 Cells; conditions: thp1

IC50 [nM] | SMILES
> 5000 | Cc1ccc(C(N)=O)cc1Nc1nc(NCC(C)C)nc(N[C@H]2CCNC2)n1
> 250 | COC(=O)c1ccc(C)c(Nc2nc(N[C@H]3CCNC3)nc(N(C)CC(C)(C)C)n2)c1

target: CDK2 (human) (UniProt P24941); experiment: Enzyme Assay; conditions: not given; remark: another data set of the same source

IC50 [nM] | SMILES
70 | CC[C@H](Nc1nc(NCc2cccnc2)c2ncn(C(C)C)c2n1)C(C)(C)O

target: PIK3CG (UniProt P48736); experiment: Inhibition of PIK3CG Kinase Activity; conditions: not given
Sequence (P48736 whole entry, looked up): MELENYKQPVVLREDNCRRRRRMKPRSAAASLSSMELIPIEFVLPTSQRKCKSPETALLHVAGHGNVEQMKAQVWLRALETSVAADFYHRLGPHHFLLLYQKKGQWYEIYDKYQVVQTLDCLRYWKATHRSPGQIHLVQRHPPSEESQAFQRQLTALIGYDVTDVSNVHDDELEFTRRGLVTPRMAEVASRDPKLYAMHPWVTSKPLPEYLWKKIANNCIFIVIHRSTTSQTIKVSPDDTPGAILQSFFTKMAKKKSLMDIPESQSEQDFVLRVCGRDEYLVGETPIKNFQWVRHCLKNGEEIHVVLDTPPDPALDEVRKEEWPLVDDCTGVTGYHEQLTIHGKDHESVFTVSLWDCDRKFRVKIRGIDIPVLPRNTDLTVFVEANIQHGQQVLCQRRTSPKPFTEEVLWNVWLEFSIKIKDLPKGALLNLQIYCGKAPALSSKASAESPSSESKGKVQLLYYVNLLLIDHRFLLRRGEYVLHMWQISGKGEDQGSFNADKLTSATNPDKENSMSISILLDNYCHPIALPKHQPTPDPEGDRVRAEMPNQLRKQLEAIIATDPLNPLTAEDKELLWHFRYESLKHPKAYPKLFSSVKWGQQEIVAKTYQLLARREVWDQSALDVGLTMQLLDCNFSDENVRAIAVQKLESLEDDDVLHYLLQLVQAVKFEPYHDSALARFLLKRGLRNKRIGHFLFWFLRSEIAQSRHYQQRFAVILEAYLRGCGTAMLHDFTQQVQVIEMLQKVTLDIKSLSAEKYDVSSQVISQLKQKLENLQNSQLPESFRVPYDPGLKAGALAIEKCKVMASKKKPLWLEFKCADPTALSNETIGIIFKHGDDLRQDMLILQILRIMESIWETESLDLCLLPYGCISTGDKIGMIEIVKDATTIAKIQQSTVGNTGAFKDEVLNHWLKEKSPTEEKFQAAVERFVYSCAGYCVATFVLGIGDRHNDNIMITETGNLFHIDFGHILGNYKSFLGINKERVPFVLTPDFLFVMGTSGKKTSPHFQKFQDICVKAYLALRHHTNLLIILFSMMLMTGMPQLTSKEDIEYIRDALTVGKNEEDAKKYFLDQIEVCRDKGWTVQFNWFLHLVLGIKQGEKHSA

IC50 [nM] | SMILES
< 1000 | CON=C1NC(=O)/C(=C/c2ccc3c(c2)OCO3)S1
< 1500 | O=C1NC(=NCc2ccccc2)S/C1=C\c1ccc2c(c1)OCO2
< 1000 | N#CN=C1NC(=O)/C(=C/c2ccc3nccnc3c2)S1
< 1000 | COC(=O)c1sccc1S(=O)(=O)N=C1NC(=O)/C(=C/c2ccc3ncccc3c2)S1
< 1000 | CN=C1NC(=O)/C(=C/c2ccc3ncnc(N(C)C)c3c2)S1

target: PIK3CG;PIK3CA (human) (UniProt P48736); experiment: Antiproliferation of PC3-MM2 Cells; conditions: pc-3
Sequence (P48736 whole entry, looked up): as above

IC50 [nM] | SMILES
1510 | COc1ccc2c(c1)c(/C=C1\Oc3cc(O)ccc3C1=O)c1n2CCNC1
5630 | COc1ccc2c(c1)c(/C=C1\Oc3cc(O)cc(O)c3C1=O)c1n2CCOC1=O
2190 | COc1ccc2c(c1)c(/C=C1\Oc3cc(O)cc(O)c3C1=O)c1n2CCNC1
5050 | COc1ccc2c(c1)c(/C=C1\Oc3cc(O)cc(O)c3C1=O)c1n2CCN(C)C1=O
1610 | COc1ccc2c(c1)c(/C=C1\Oc3cc(O)cc(O)c3C1=O)c1n2CCN(C)C1
3400 | COc1ccc2c(c1)c(/C=C1\Oc3cc(O)ccc3C1=O)c1n2CCC1
1910 | COc1ccc2c(c1)c(/C=C1\Oc3cc(O)cc(O)c3C1=O)c1n2CCOC1

target: MAPK14 (UniProt Q16539); experiment: p38-alpha Kinase Inhibition; conditions: not given

IC50 [nM] | SMILES
243 | O=C(c1ccc2[nH]c3c(c2c1)CCNC3)N1CCC(Cc2ccc(F)cc2)CC1
330 | O=C(c1ccc2[nH]c3c(c2c1)CCNC3)N1CCC(Cc2ccccc2)CC1
242 | COc1c(C(=O)N2CCC(Cc3ccc(F)cc3)CC2)ccc2[nH]c3c(c12)CCNC3

target: EGFR (UniProt P00533); experiment: not given; conditions: cho.ir
Sequence (P00533 whole entry, looked up): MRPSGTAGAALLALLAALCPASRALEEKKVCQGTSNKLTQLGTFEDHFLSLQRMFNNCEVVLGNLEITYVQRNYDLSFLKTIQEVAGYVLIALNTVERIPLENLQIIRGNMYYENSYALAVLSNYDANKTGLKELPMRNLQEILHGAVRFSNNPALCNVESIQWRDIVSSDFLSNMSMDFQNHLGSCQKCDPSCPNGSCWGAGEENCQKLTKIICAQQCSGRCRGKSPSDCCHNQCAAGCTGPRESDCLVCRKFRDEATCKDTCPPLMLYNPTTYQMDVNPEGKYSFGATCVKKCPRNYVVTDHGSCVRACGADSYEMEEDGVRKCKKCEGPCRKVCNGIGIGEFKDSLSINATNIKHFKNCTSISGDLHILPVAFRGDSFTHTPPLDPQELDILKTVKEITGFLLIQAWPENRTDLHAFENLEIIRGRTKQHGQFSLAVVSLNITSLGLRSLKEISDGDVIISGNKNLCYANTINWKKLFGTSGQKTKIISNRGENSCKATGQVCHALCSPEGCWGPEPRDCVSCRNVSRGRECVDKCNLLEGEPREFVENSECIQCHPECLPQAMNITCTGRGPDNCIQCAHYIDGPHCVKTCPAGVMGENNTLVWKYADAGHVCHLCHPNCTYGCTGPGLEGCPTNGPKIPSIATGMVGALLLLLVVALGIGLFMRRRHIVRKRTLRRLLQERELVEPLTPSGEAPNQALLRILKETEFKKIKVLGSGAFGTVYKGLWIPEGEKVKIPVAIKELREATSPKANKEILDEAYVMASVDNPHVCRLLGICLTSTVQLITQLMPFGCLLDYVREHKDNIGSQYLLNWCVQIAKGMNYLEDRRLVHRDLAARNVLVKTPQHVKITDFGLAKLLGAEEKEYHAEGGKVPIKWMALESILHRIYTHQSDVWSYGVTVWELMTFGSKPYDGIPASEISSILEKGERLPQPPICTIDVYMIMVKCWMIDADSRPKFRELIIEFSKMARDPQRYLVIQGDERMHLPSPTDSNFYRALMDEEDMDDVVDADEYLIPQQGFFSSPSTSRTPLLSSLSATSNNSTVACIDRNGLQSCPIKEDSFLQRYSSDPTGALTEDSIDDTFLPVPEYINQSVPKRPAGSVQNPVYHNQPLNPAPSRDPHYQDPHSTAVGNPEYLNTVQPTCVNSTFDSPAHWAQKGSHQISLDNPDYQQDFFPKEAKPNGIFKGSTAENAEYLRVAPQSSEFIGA

EC50 [nM] | SMILES
20000 | O=C1C(O)=C(c2c[nH]c3ccccc23)C(=O)C(O)=C1c1ccccc1
15000 | C=CC(C)(C)c1[nH]c2ccccc2c1C1=C(O)C(=O)C(c2c[nH]c3c(CC=C(C)C)cccc23)=C(O)C1=O
25000 | Cc1cccc2c(C3=C(O)C(=O)C(c4c[nH]c5ccccc45)=C(O)C3=O)c[nH]c12

same assay, conditions: cho.ir, concentration not given here

activation [%] | SMILES
< 5 | COc1ccc(C2=C(O)C(=O)C(c3ccccc3)=C(O)C2=O)cc1
< 5 | O=C1C(O)=C(c2csc3ccccc23)C(=O)C(O)=C1c1ccccc1
< 5 | O=C1C(O)=C(c2coc3ccccc23)C(=O)C(O)=C1c1ccccc1
< 5 | Cn1cc(C2=C(O)C(=O)C(c3ccccc3)=C(O)C2=O)c2ccccc21

target: ROCK2 (human) (UniProt O75116); experiment: not given; conditions: not given
Sequence (O75116 whole entry, looked up): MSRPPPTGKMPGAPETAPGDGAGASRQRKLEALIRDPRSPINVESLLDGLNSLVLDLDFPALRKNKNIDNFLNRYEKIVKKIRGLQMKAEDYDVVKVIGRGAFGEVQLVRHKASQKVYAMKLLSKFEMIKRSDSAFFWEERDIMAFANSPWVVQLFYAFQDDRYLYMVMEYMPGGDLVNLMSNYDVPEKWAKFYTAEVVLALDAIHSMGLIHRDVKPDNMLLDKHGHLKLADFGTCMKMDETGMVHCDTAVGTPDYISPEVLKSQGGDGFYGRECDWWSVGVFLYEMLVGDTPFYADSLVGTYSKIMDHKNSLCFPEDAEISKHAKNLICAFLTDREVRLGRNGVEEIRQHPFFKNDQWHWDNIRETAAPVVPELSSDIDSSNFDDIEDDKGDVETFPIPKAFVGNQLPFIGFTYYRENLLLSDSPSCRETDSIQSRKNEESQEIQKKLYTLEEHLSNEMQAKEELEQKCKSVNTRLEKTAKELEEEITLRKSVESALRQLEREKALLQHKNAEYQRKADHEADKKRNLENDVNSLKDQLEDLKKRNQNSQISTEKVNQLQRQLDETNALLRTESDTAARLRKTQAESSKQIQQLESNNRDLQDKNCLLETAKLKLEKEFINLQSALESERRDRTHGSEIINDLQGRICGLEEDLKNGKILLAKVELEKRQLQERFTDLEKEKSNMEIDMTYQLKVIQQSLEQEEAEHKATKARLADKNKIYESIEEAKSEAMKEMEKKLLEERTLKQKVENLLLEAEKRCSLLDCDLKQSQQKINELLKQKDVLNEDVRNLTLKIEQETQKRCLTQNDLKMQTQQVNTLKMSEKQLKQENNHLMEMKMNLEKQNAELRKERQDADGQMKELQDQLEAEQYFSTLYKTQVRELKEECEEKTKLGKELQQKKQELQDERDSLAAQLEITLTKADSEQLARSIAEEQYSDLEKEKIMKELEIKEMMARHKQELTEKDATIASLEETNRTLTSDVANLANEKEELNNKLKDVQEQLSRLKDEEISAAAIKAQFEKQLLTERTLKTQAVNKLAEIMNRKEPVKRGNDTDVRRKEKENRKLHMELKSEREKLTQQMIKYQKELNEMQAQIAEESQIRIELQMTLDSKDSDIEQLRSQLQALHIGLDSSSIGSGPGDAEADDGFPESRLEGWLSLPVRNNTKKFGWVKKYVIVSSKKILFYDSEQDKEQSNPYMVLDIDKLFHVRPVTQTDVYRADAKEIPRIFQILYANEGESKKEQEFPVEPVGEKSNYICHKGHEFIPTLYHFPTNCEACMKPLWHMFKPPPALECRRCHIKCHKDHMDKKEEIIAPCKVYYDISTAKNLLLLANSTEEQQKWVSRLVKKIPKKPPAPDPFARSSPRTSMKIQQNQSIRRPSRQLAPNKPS

IC50 [nM] | SMILES
9 | CCN1Cc2ccc(OC)cc2C[C@@H]1C(=O)Nc1ccc(-c2cn[nH]c2)cc1OCCN(C)C
134 | COc1ccc2c(c1)C[C@H](C(=O)Nc1ccc(-c3cn[nH]c3)cc1)NC2
334 | COc1cccc2c1CNC(C(=O)Nc1ccc(-c3cn[nH]c3)cc1OCCN(C)C)C2 (configuration not stated)
2 | NC(Cc1cccc(Cl)c1)C(=O)Nc1ccc(-c2cn[nH]c2)cc1 (configuration not stated)
850 | CCOc1ccc2c(c1)CC(C(=O)Nc1ccc(-c3cn[nH]c3)cc1OCCN(C)C)NC2 (configuration not stated)
261 | COc1ccc2c(c1)CN[C@@H](C(=O)Nc1ccc(-c3cn[nH]c3)cc1OCCN(C)C)C2

target: EGFR (UniProt P00533); experiment: not given; conditions: not given

IC50 [nM] | SMILES
> 10000 | N#Cc1cccc(NC(=O)Nc2ncnc3nn4ccccc4c23)c1
> 10000 | O=C(Nc1cccc([N+](=O)[O-])c1)Nc1ncnc2nn3ccccc3c12
> 10000 | O=C(Nc1ccc(C(F)(F)F)cc1)Nc1ncnc2nn3ccccc3c12
> 10000 | O=C(Nc1cccc(C(F)(F)F)c1)Nc1ncnc2nn3ccccc3c12
> 10000 | O=C(Nc1ccc(F)cc1)Nc1ncnc2nn3ccccc3c12
> 10000 | O=C(Nc1ccc(Br)cc1)Nc1ncnc2nn3ccccc3c12

target: EGFR (mouse) (UniProt P00533); experiment: not given; conditions: not given

ID50 [nM] | SMILES
1320 | CC(C)[C@H]1C(=O)N[C@H](CO)Cc2c[nH]c3c(CCNC(=O)c4ccc(N=[N+]=[N-])cc4)ccc(c23)N1C
1.33 | CCCCCCCCCCCC(=O)O[C@@H]1[C@@H](C)[C@@]2(O)[C@@H](C=C(CO)C[C@]3(O)C(=O)C(C)=C[C@@H]23)[C@@H]2C(C)(C)[C@]12OC(C)=O
4.4 | CC[C@@](C)(CCCC(C)(C)SCCNC(=O)c1ccc(N=[N+]=[N-])cc1)c1ccc2c3c(c[nH]c13)C[C@@H](CO)NC(=O)[C@H](C(C)C)N2C
71 | CCCCC[C@@H](Cc1ccc2c3c(c[nH]c13)C[C@@H](CO)NC(=O)[C@H](C(C)C)N2C)NC(=O)c1ccc(N=[N+]=[N-])cc1
89 | CCCCC[C@H](Cc1ccc2c3c(c[nH]c13)C[C@@H](CO)NC(=O)[C@H](C(C)C)N2C)NC(=O)c1ccc(N=[N+]=[N-])cc1

SMILES | ID50 [nM]
C=C[C@@]1(C)CC[C@](C)(C(C)C)c2cc3c4c(c[nH]c4c21)C[C@@H](CO)NC(=O)[C@H](C(C)C)N3C | 2.23
CC(C)[C@H]1C(=O)N[C@H](CO)Cc2c[nH]c3cccc(c23)N1C | 1110

target: EGFR (murine) (UniProt P00533); experiment: not given; conditions: nih3t3

IC50 [nM] | SMILES
> 100000 | Fc1ccc(CNc2ccc3nc(-c4ccccc4)c(-c4ccccc4)nc3n2)cc1
> 100000 | Cc1nc2ccc(NCc3ccc(F)cc3)nc2nc1-c1ccccc1
> 50000 | c1ccc(Nc2ccc3ncc(-c4ccccc4)nc3n2)cc1
> 100000 | COc1ccc2nc(-c3ccccc3)c(-c3ccccc3)nc2n1
> 100000 | COc1ccc2nc(C)c(-c3ccccc3)nc2n1
> 50000 | Oc1ccc(-c2cnc3ccc(NCc4ccccc4)nc3n2)cc1

target: EGFR (UniProt P00533); experiment: not given; conditions: not given; remark: another data set of the same source

IC50 [nM] | SMILES
> 10000 | CN(C)CCCn1nc(C2=C(c3cn(-c4cnc5ccccc5c4)c4ccccc34)C(=O)NC2=O)c2ccccc21
> 10000 | CN(C)CCCn1nc(C2=C(c3cn(-c4ccc5ccccc5c4)c4ccccc34)C(=O)NC2=O)c2ccccc21
> 10000 | CN(C)CCCn1nc(C2=C(c3cn(-c4cccc5ccccc45)c4ccccc34)C(=O)NC2=O)c2ccccc21
> 10000 | CN(C)CCCn1nc(C2=C(c3cn(-c4cccnc4)c4ccccc34)C(=O)NC2=O)c2ccccc21
> 10000 | CN(C)CCCn1nc(C2=C(c3cn(-c4cccs4)c4ccccc34)C(=O)NC2=O)c2ccccc21
> 10000 | CN(C)CCCn1nc(C2=C(c3cn(-c4csc5ccccc45)c4ccccc34)C(=O)NC2=O)c2ccccc21

target: MAPK14 (UniProt Q16539); experiment: not given; conditions: not given

inhibition [µM] | SMILES
< 50 | COc1ccc(Oc2cc(-c3c(-c4ccc(F)cc4)ncn3C3CCNCC3)ccn2)cc1
< 50 | Fc1ccc(-c2ncn(C3CCNCC3)c2-c2ccnc(Oc3ccccc3)c2)cc1
< 50 | Fc1ccc(-c2ncn(C3CCNCC3)c2-c2ccnc(Sc3ccccc3)c2)cc1
< 50 | Fc1ccc(Oc2cc(-c3c(-c4ccc(F)cc4)ncn3C3CCNCC3)ccn2)cc1
< 50 | Cn1nnnc1Sc1cc(-c2c(-c3ccc(F)cc3)ncn2C2CCNCC2)ccn1
< 50 | Fc1ccc(Oc2nccc(-c3c(-c4ccc(F)cc4)ncn3CCCN3CCOCC3)n2)cc1

target: EGFR (UniProt P00533); experiment: EGFR Kinase Inhibition; conditions: not given

IC50 [nM] | SMILES
1300 | COc1ccc(Nc2ncc3cc(-c4c(Cl)cccc4Cl)c(=O)n(C)c3n2)cn1
44000 | C[C@@H](O)[C@@H](NC1=CC(=O)C(N[C@@H](C(=O)O)[C@@H](C)O)=CC1=O)C(=O)O
> 100000 | CC(C)[C@@H](NC1=C(CC2CCCC3CCCCC32)C(=O)C(O)=CC1=O)C(=O)O (some centres not stated)
1000 | Cn1c(=O)c(-c2c(Cl)cccc2Cl)cc2cnc(NCCCCCC(=O)O)nc21
4500 | CN1CCN(CCCCCNc2ncc3cc(-c4c(Cl)cccc4Cl)c(=O)n(C)c3n2)CC1

target: EGFR (Hamster) (UniProt P00533); experiment: not given; conditions: not given
Sequence (P00533 whole entry, looked up): as the sequence (P00533 whole entry, looked up) above

IC50 [nM] | SMILES
> 100000 | O=C(O)c1cc(N=Cc2ccccc2O)ccc1O
> 100000 | COC(=O)c1cc(N=Cc2ccccc2O)ccc1O
> 10000 | O=C(O)c1cccc(N=Cc2cc(O)ccc2O)c1
> 10000 | COC(=O)c1cc(N=Cc2cc(OC)ccc2OC)ccc1O
> 100000 | COC(=O)c1cc(NCc2cc(OC)ccc2OC)ccc1O
> 100000 | COC(=O)c1cc(N=Cc2ccc(O)cc2O)ccc1O
> 100000 | COC(=O)c1cc(N=Cc2cccc(O)c2)ccc1O

target: EGFR (UniProt P00533); experiment: not given; conditions: not given; remark: another data set of the same source

IC50 [nM] | SMILES
0.0026 | COc1cc2c(Nc3cccc(Br)c3)ncnc2cn1
30 | COc1ccc2ncnc(Nc3cccc(Br)c3)c2c1
0.008 | CNc1cc2c(Nc3cccc(Br)c3)ncnc2cn1
0.13 | Nc1cc2c(Nc3cccc(Br)c3)ncnc2cn1
0.006 | CN(C)c1cc2c(Nc3cccc(Br)c3)ncnc2cn1
7.6 | Nc1ccc2ncnc(Nc3cccc(Br)c3)c2n1

target: EGFR (UniProt P00533); experiment: not given; conditions: concentration not given here

inhibition [%] | SMILES
> 50 | NC(=O)c1c(NC(=O)C2CC2)sc2c1CCC(Br)(Br)C2=O
> 50 | NC(=O)c1c(NC(=O)Nc2ccc(F)cc2)sc2c1CCC(=O)C2
> 50 | CC1CC1C(=O)Nc1sc2c(Cl)c(O)ccc2c1C(N)=O (configuration not stated)
> 50 | NC(=O)c1c(NC(=O)C2CC2)sc2c(O)c(Br)ccc12
> 50 | NN=C1CCc2c(sc(NC(=O)C3CC3)c2C(N)=O)C1
